From the PolyMetriX glass transition set
± gives the standard deviation of the reports.

SMILES | glass transition temperature
*CC/C=C(/*)C (repeat unit) [Polyisoprene (cis)] | -67.00 ± 7 °C
*C(=O)Nc1ccc(S(=O)(=O)c2ccc(NC(=O)c3ccc4[nH]c(-c5cccc(-c6nc7cc(*)ccc7[nH]6)c5)nc4c3)cc2)cc1 (repeat unit) | 312.00 °C
*c1ccc(C(=O)OCCCCCCOC(=O)c2ccc(-c3nnc(*)s3)cc2)cc1 (repeat unit) | 125.00 °C
*Oc1cccc(C(=O)c2ccc(*)cc2)c1 (repeat unit) | 137.00 °C
*C(=O)Nc1cc(NC(=O)c2ccc3[nH]c(-c4cccc(-c5nc6cc(*)ccc6[nH]5)c4)nc3c2)cc(-c2nc3ccccc3[nH]2)c1 (repeat unit) | 315.00 °C
*CCCCCCCCCCSSSS* (repeat unit) | -76.00 °C
*CCCCCCCNC(=O)C(OC)C(OC)C(=O)N* (repeat unit) | 87.00 °C
*c1ccc(Oc2ccc(-c3ccc(Oc4ccc(N5C(=O)c6ccc(Oc7ccc(C8(c9ccc(Oc%10ccc%11c(c%10)C(=O)N(*)C%11=O)cc9)CCC(C(C)(C)C)CC8)cc7)cc6C5=O)cc4)cc3C)c(C)c2)cc1 (repeat unit) | 236.00 °C
*C(=O)c1ccc2c(c1)C(=O)N(c1ccc(C(=O)Nc3ccc(Oc4ccc(NC(=O)c5ccc(NC(=O)Nc6ccc(Cc7ccc(NC(=O)Nc8ccc(C(=O)Nc9ccc(Oc%10ccc(NC(=O)c%11ccc(N%12C(=O)c%13ccc(*)cc%13C%12=O)cc%11)cc%10)cc9)cc8)cc7)cc6)cc5)cc4)cc3)cc1)C2=O (repeat unit) | 229.00 °C
*CC(*)(C)C(=O)OCCCCCCOc1ccc(-c2ccc(C#N)cc2)cc1 (repeat unit) | 63.00 °C
*CC(*)c1ccc(Oc2ccccc2)cc1 (repeat unit) | 85.00 °C
*CCCC(Cl)C(*)Cl (repeat unit) | 42.00 °C
*Sc1ccc(Sc2ccc(Sc3ccc4c(c3)C(=O)N(N3C(=O)c5ccc(*)cc5C3=O)C4=O)cc2)cc1 (repeat unit) | 223.50 °C
*c1cccc(P(=O)(c2ccc(C(F)(F)F)cc2)c2cccc(N3C(=O)c4ccc(Oc5ccc6c(c5)C(=O)N(*)C6=O)cc4C3=O)c2)c1 (repeat unit) | 248.00 °C
*CC(*)CCCCCC (repeat unit) [Poly(hexylethylene)] | -54.58 ± 0.8 °C
*C(F)(F)C1(*)OC(F)(F)C(F)(C(F)(F)F)O1 (repeat unit) | 135.00 °C

The remaining lines, values ahead:

glass transition temperature | SMILES
120.00 °C | *Oc1ccc(Oc2ccc(/C=N/c3ccc(Oc4ccc(/N=C/c5ccc(*)cc5)cc4)cc3)cc2)cc1 (repeat unit)
200.00 °C | *c1ccc(Oc2ccc(S(=O)(=O)c3ccc(Oc4ccc(N5C(=O)c6ccc(Oc7ccc(C(C)(C)c8ccc(Oc9ccc%10c(c9)C(=O)N(*)C%10=O)cc8)cc7)cc6C5=O)cc4)cc3)cc2)cc1 (repeat unit)
295.00 °C | *Oc1ccc(C(C)(C)c2ccc(OC(=O)c3ccc([Si](c4ccccc4)(c4ccccc4)c4ccc(C(*)=O)cc4)cc3)cc2)cc1 (repeat unit)
162.00 °C | *Oc1ccc(Oc2ccc(C(=O)c3ccc(*)cc3)cc2)cc1-c1cc(C)cc(C)c1 (repeat unit)
236.00 °C | *c1ccc(C(C)(C)c2ccc(N3C(=O)c4ccc(Oc5ccc6cc(Oc7ccc8c(c7)C(=O)N(*)C8=O)ccc6c5)cc4C3=O)cc2)cc1 (repeat unit)
175.00 °C | */C=C/c1c(OC(=O)c2ccc(C(=O)Oc3cccc4ccc(*)nc34)cc2)ccc2ccccc12 (repeat unit)
170.00 °C | *c1ccc(C(c2ccc(OCCCC)cc2)c2ccc(N(*)c3ccc(C)cc3)cc2)cc1 (repeat unit)
201.00 °C | *c1ccc(C(=O)NCCCCCCNC(=O)c2ccc(-c3nc4ccccc4nc3*)cc2)cc1 (repeat unit)
100.00 °C | *CC(*)(C)C(=O)Oc1ccc(C(=O)Oc2ccc(-c3ccccc3)cc2)cc1 (repeat unit)
